In assay [1] the target is T1, SIRT3 (Homo sapiens, UniProt Q9NTG7).
T1 sequence (Q9NTG7 1-399): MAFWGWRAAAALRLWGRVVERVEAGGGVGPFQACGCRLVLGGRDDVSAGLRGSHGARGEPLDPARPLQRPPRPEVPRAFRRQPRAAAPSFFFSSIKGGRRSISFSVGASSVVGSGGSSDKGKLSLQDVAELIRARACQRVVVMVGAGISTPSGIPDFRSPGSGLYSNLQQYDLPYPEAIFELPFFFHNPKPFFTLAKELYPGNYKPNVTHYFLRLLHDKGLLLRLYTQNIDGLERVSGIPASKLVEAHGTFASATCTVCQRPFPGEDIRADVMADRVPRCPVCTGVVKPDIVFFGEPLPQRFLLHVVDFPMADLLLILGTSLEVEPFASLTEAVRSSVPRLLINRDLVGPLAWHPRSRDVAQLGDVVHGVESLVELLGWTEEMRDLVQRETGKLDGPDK
In words: Fluor de Lys SIRT3 assay. The note with it: for inhibition at 10 µM: read-out: % inhibition at 10 μM SIRT3; for inhibition at 50 µM: read-out: % inhibition at 50 μM SIRT3.

Assay [2] relates to MDA-MB-231 cells. Kind of assay: Cell growth assay (AlamarBlue), MDA-MB-231. The assay is classed as cell-based, human. Conditions: Homo sapiens, 72 h of treatment.
The target of assay [3] is T2, SIRT1 (Homo sapiens, UniProt Q96EB6).
T2 sequence (Q96EB6 1-747): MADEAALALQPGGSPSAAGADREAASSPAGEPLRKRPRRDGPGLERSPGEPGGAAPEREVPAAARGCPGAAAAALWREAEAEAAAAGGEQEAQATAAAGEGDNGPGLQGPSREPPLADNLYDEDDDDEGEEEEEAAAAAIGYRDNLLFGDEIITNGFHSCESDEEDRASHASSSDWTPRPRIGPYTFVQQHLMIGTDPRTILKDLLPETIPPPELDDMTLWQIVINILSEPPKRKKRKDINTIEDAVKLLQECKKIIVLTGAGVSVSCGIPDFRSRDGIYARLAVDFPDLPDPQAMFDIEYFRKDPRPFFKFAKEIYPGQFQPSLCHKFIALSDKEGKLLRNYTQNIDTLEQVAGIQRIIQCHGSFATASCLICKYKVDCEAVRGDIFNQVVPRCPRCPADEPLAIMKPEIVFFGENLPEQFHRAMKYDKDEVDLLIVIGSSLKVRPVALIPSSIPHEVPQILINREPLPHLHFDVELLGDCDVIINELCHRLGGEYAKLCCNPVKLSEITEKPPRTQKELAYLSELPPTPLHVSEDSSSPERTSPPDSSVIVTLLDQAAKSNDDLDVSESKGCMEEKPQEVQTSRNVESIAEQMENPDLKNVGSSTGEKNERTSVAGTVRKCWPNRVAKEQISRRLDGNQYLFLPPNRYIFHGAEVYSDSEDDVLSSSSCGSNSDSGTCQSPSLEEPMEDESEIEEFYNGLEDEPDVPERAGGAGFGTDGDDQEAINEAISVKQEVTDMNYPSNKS
Details: purchased Biomol / Enzo Life Sciences (Fluor de Lys kit AK-555) BML-SE239-0100. The note with it: cited from earlier work.

For assay [4], the target named is T2, SIRT1. Kind of assay: Fluor de Lys SIRT1 assay. The note with it: for inhibition at 10 µM: read-out: % inhibition at 10 μM SIRT1; for inhibition at 50 µM: read-out: % inhibition at 50 μM SIRT1.
The target of assay [5] is T1, SIRT3. The arrangement: purchased Biomol / Enzo Life Sciences (Fluor de Lys kit AK-557) BML-SE270-0500. The note with it: cited from earlier work.
Assay [6] deals with T3, SIRT2 (Homo sapiens, UniProt Q8IXJ6).
T3 sequence (Q8IXJ6 1-389): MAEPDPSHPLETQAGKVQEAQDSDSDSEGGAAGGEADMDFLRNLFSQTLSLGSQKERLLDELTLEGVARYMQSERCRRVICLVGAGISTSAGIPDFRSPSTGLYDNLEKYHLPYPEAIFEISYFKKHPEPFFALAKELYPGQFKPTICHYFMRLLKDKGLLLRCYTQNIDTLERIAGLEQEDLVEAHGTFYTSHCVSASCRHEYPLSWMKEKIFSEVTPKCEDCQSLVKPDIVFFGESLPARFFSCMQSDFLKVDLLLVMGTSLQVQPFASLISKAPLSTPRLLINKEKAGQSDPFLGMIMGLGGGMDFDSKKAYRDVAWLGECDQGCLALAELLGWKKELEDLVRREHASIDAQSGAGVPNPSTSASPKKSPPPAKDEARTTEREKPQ
Kind of assay: Fluor de Lys SIRT2 assay. The note with it: for inhibition at 1 µM: read-out: % inhibition at 1 μM SIRT2; for inhibition at 10 µM: read-out: % inhibition at 10 μM SIRT2.

Assay [7] deals with T4, SIRT5 (Homo sapiens, UniProt Q9NXA8).
T4 sequence (Q9NXA8 37-310): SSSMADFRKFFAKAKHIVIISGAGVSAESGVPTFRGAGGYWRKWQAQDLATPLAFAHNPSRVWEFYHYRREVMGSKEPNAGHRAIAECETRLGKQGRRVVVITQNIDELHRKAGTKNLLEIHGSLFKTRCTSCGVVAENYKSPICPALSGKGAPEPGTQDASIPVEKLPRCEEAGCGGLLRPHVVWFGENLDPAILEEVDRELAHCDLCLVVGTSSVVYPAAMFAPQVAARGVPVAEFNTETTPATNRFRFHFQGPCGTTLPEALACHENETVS
In words: Fluor de Lys SIRT5 assay. The note with it: for inhibition at 10 µM: read-out: % inhibition at 10 μM SIRT5; for inhibition at 50 µM: read-out: % inhibition at 50 μM SIRT5.

One may read the inhibition as the change of the read-out against control, counted positive when it falls. What is called GI50 is the concentration that inhibits growth by half. Low readings indicate more potent growth inhibition, high ones less potent growth inhibition. A word on the IC50: it is the midpoint of a concentration-inhibition curve. With `NC(=O)c1ccccc1Nc1cccc(OCCc2ccccc2)c1` [Compound 6, 3′-phenethyloxy-2-anilinobenzamide, reference compound], the inhibition at 10 µM in assay [1] was 1 ± 2.6%; in assay [4] it was 3 ± 3.6%; in assay [6], 90 ± 1.5%; in assay [7], 10 ± 2.6%. Further, the figures for the inhibition at 50 µM in assay [1], in assay [4] and in assay [7] were 12%, 14% and 12%, respectively. In assay [2] (MDA-MB-231, 72 h), this molecule displayed a GI50 of more than 30 µM. For the same molecule, the IC50 was more than 300 µM in assay [3], more than 300 µM in assay [5] and 1.74 ± 0.26 µM in assay [6]. In addition, the inhibition at 1 µM in assay [6] was found to be 32 ± 4.1%.

Regarding `Cc1cc(C)nc(SCC(=O)Nc2ncc(Cc3cccc4ccccc34)s2)n1` [Compound 5, SirReal2, reference compound], the inhibition at 10 µM in assay [1] was found to be 5 ± 0.6%; in assay [4], 3 ± 0.65%; in assay [6], 98 ± 3.1%; in assay [7], 3 ± 1.5%. Moreover, the inhibition at 50 µM was found to be 1% in assay [1], 6% in assay [4] and 1% in assay [7]. This molecule also came in with a GI50 in assay [2] of 9.46 µM. Also, the IC50 in assay [3] and in assay [5] was more than 100 µM in each case. In assay [6], the inhibition at 1 µM came out at 80 ± 1.5%.

Values taken from publication PMC5628579, “Potent mechanism-based sirtuin-2-selective inhibition by an in situ-generated occupant of the substrate-binding site, “selectivity pocket” and NAD^+-binding site” (Chemical Science, 2017).
